{
  "source": "patent US7771726B2",
  "about": "“Use of synthetic glycolipids as universal adjuvants for vaccines against cancer and infectious diseases” (New York University, priority 2003, dated 2010)",
  "key": {"[1]": {"tested_on": "Th1-type cytokines, IFN-γ and IL-12; Th2 cytokine, IL-4", "test": "cytokine production in vivo after administration to mice", "settings": "as compared to α-GalCer", "description": "(§1) As reported in copending U.S. patent application Ser. No. 10/206,155, α-Galactosylceramide (α-GalCer) is a glycolipid ligand for natural killer T (NKT) cells, which respond to the glycolipid and produce both interferon (IFN)-γ and interleukin (IL)-4. […] It has now been discovered that synthetic C-glycoside analogs of α-GalCer of general formula (I) act as an NKT cell ligand and display 100-1000 fold higher activity against tumor and malaria, by preferentially inducing the production of Th1-type cytokines, IFN-γ and IL-12, in vivo."}, "murine NKT cells": {"tested_on": "murine NKT cells", "test": "stimulation of murine NKT cells", "type": "cell-based"}, "malaria": {"tested_on": "malaria", "test": "malaria disease model in mice, activity compared to α-GalCer", "type": "in vivo", "settings": "disease model requiring Th1-type responses; relative to α-GalCer", "description": "as §1"}, "[2]": {"tested_on": "Gag-specific CD8+ and CD4+ T cell response", "test": "adjuvant activity with DNA vaccine encoding an HIV Gag sequence (FIGS. 3A and 3B)", "type": "in vivo", "settings": "for Gag-specific CD8+ T cell response: FIG. 3A", "description": "FIGS. 3A and 3B depict the adjuvant activity of α-GalCer and CRONY 101, and the enhancement of a Gag-specific CD8+ T-cell response elicited by a DNA vaccine encoding an HIV-Gag sequence.\nFurther studies used a naked DNA plasmid encoding an HIV Gag sequence, as a vaccine."}, "[3]": {"tested_on": "malaria antigen-specific CD8+ T-cell responses", "test": "adjuvant activity with suboptimal dose of recombinant adenovirus expressing a malarial antigen (FIG. 2)", "type": "in vivo, mice", "description": "FIG. 2 depicts the adjuvant activity of CRONY 101, and the enhancement of a malaria-specific CD8+ T-cell response elicited by a recombinant adenovirus expressing a malaria antigen; and\nIn FIG. 2, the number of IFN secreting CD8+ T cells per million splenocytes is greater for CRONY 101 than for α-GalCer.\nThus, co-administration of α-C-GalCer to mice immunized with a suboptimal dose of a recombinant adenovirus expressing a malarial antigen enhanced protective antimalaria immunity and the level of malaria antigen-specific CD8^+ T-cell responses. Coadministration of 1 ng of CRONY 101 was compared to administration of 1 μg of α-GalCer."}, "human NKT cells": {"tested_on": "human NKT cells", "test": "stimulation of human NKT cells", "type": "cell-based"}, "melanoma metastases": {"tested_on": "melanoma metastases", "test": "melanoma metastases disease model, activity compared to α-GalCer", "type": "in vivo, mice", "settings": "disease model requiring Th1-type responses; relative to α-GalCer", "description": "as §1"}, "[4]": {"tested_on": "human CD1d-restricted lymphocytes that express a semi-invariant TCR", "settings": "Kawano et al., 1997; cited from earlier work"}, "[5]": {"tested_on": "mouse CD1d-restricted lymphocytes that express a semi-invariant TCR", "settings": "Kawano et al., 1997; cited from earlier work"}, "[6]": {"tested_on": "HIV specific CD4+/CD8+ T-cell responses", "test": "adjuvant effects on DNA vaccination in mice (FIG. 1)", "type": "in vivo", "description": "FIG. 1 depicts the adjuvant effects of α-GalCer on DNA vaccination in mice, and the enhancement of HIV-specific CD4+/CD8+ T-Cell responses;\nFIG. 1 depicts the adjuvant effects of the α-GalCer on DNA vaccination in mice."}, "[7]": {"settings": "DNA vaccine encoding an HIV Gag sequence"}, "[8]": {"settings": "co-administration, mice immunized with suboptimal dose of recombinant adenovirus"}},
  "data": [
    {"smiles": "CCCCCCCCCCCCCCCCCCCCCCCCCC(=O)N[C@@H](CCC1OC(CO)[C@H](O)C(O)[C@@H]1O)[C@H](O)[C@H](O)CCCCCCCCCCCCCC", "note": "(stereo partly drawn) [CRONY 101, 3′S,4′S,5′R-3′-N-hexacosanoyl-4′,5′-dihydroxynonadecyl-α-C-D-galactopyranoside]", "values": [
      {"measurement": "population of the Th2 cytokine, IL-4", "setting": "[1]", "result": "decreased"},
      {"measurement": "production of the Th1-type cytokines", "setting": "[1]", "result": "prolonged production"},
      {"measurement": "stimulation of murine NKT cells", "setting": "murine NKT cells", "result": "stimulate"},
      {"measurement": "more potent activity than α-GalCer, malaria", "setting": "malaria", "result": 1000, "unit": "fold"},
      {"measurement": "Gag-specific CD8+ T cell response", "setting": "[2]; [7]", "result": "enhances"},
      {"measurement": "Gag-specific CD4+ T cell response", "setting": "[2]; FIG. 3B, DNA vaccine encoding a HIV-Gag sequence", "result": "enhancing"},
      {"measurement": "adjuvant activity compared with α-GalCer", "setting": "[2]; FIGS. 3A and 3B, DNA vaccine encoding an HIV Gag sequence", "result": "more potent"},
      {"measurement": "increased number of malaria specific CD8+ cells", "setting": "[3]; 1 ng of CRONY 101 as compared to 1 μg of α-GalCer", "result": "⅚"},
      {"measurement": "number of IFN secreting CD8+ T cells per million splenocytes", "setting": "[3]; FIG. 2, compared with α-GalCer", "result": "greater"},
      {"measurement": "adjuvant activity compared with α-GalCer", "setting": "[3]; FIG. 2, recombinant adenovirus expressing a malaria antigen", "result": "more potent"},
      {"measurement": "level of malaria antigen-specific CD8+ T-cell responses", "setting": "[3]; [8]", "result": "enhanced"},
      {"measurement": "protective antimalaria immunity", "setting": "[3]; [8]", "result": "enhanced"},
      {"measurement": "stimulation of human NKT cells", "setting": "human NKT cells", "result": "stimulate"},
      {"measurement": "more potent activity than α-GalCer, melanoma metastases", "setting": "melanoma metastases", "result": 100, "unit": "fold"}
    ]},
    {"smiles": "CCCCCCCCCCCCCCCCCCCCCCCCCC(=O)N[C@@H](CO[C@H]1O[C@H](CO)[C@H](O)[C@H](O)[C@H]1O)[C@H](O)[C@H](O)CCCCCCCCCCCCCC", "note": "[α-GalCer, α-galactosyl-ceramide, reference compound]", "values": [
      {"measurement": "stimulation of murine NKT cells", "setting": "murine NKT cells", "result": "stimulate"},
      {"measurement": "Gag-specific CD8+ T cell response", "setting": "[2]; [7]", "result": "enhancement"},
      {"measurement": "concentrations at which recognized", "setting": "[4]", "result": "picomolar"},
      {"measurement": "concentrations at which recognized", "setting": "[5]", "result": "picomolar"},
      {"measurement": "stimulation of human NKT cells", "setting": "human NKT cells", "result": "stimulate"},
      {"measurement": "HIV specific CD4+/CD8+ T-cell responses", "setting": "[6]", "result": "enhancement"}
    ]}
  ]
}
